Results: paper PMC9817970 (Cancers, 2022)
Values joined by “and” are separate entries in the source; they are usually repeats but may differ in a detail not shown here. Identical values can stand only once.

Key:
c-KIT V560G/D816V = molecular target: T1, c-KIT V560G/D816V (Homo sapiens, UniProt P10721, D816V/V560G); assay: ADP-Glo kinase assay on c-KIT V560G/D816V; assay type: biochemical
T1 construct: purchased Promega VA7063
Method: Biochemical kinase assays on c-KIT protein kinase were performed at Reaction Biology Corp. (San Diego, CA, USA). […] The kinase assay followed the manufacturer’s instruction. IC50 values were calculated by GraphPad prism 8.0 software (GraphPad Software, San Diego, CA, USA).

GIST-T1 cells = assay: Cell viability assay (CellTiter-Glo); assay type: cell-based; details: Homo sapiens, GISTT1; 72 h; concentration causing half-maximal growth inhibition
Method: GIST-T1 (Cosmobio, Tokyo, Japan, # PMC-GIST01C-COS) cells were cultured in DMEM (Welgene, # LM001-05) and HMC1.2 (Merck, Darmstadt, Germany, # SCC062) cells were cultured in IMDM (Welgene, # LM004-01). Parental Ba/F3 (DSMZ, Braunschweig, Germany, # ACC300) cells were cultured in RPMI (Welgene, # LM011-51) with 10 ng IL-3/mL (Enzo, # ALX-201-821). The culture media was supplemented with 10% fetal bovine serum and 1% penicillin/streptomycin solution. The cells were maintained in a humidified atmosphere containing 5% CO2 at 37 °C.
Cells (GIST-T1: 5.0 × 10^3; HMC1.2: 1 × 10^4) were seeded in 96-well plates. Each compound was treated in each well at 10 dose points of 3-fold serial dilution. After treatment with each compound for 72 h, CellTiter-Glo solution (Promega, # G7572) was added to each well. Anti-proliferation activity was measured the luminescence using a 96-well plate reader (EnVision 2013).

AXL = molecular target: T2, AXL (Homo sapiens, UniProt P30530); assay: Kinase panel profiling; assay type: biochemical; details: 10 μM ATP
T2 construct: purchased Reaction Biology Corp
Method: (§1) Kinase panel profiling was conducted by Reaction Biology Corp. (San Diego, CA, USA). A single dose (1.0 μM) of 6r was tested against 371 recombinant human kinases in the presence of 10 μM ATP.

CAMK1d = molecular target: T3, CAMK1d (Homo sapiens, UniProt Q8IU85); assay: Kinase panel profiling; assay type: biochemical; details: 10 μM ATP
T3 construct: purchased Reaction Biology Corp
Method: as §1

CDK16/cyclin Y (PCTAIRE) = molecular target: T4, CDK16/cyclin Y (PCTAIRE) (Homo sapiens, UniProt Q00536); assay: Kinase panel profiling; assay type: biochemical; details: 10 μM ATP
T4 construct: purchased Reaction Biology Corp
Method: as §1

CDK2/CYCLIN A = molecular target: T5, CDK2/CYCLIN A (Homo sapiens, UniProt P24941); assay: Kinase panel profiling; assay type: biochemical; details: 10 μM ATP
T5 construct: purchased Reaction Biology Corp
Method: as §1

CK1g2 = molecular target: T6, CK1g2 (Homo sapiens, UniProt P78368); assay: Kinase panel profiling; assay type: biochemical; details: 10 μM ATP
T6 construct: purchased Reaction Biology Corp
Method: as §1

CK2a = molecular target: T7, CK2a (Homo sapiens, UniProt P68400); assay: Kinase panel profiling; assay type: biochemical; details: 10 μM ATP
T7 construct: purchased Reaction Biology Corp
Method: as §1

CLK2 = molecular target: T8, CLK2 (Homo sapiens, UniProt P49760); assay: Kinase panel profiling; assay type: biochemical; details: 10 μM ATP
T8 construct: purchased Reaction Biology Corp
Method: as §1

COT1/MAP3K8 = molecular target: T9, COT1/MAP3K8 (Homo sapiens, UniProt P41279); assay: Kinase panel profiling; assay type: biochemical; details: 10 μM ATP
T9 construct: purchased Reaction Biology Corp
Method: as §1

DAPK2 = molecular target: T10, DAPK2 (Homo sapiens, UniProt Q9UIK4); assay: Kinase panel profiling; assay type: biochemical; details: 10 μM ATP
T10 construct: purchased Reaction Biology Corp
Method: as §1

DYRK4 = molecular target: T11, DYRK4 (Homo sapiens, UniProt Q9NR20); assay: Kinase panel profiling; assay type: biochemical; details: 10 μM ATP
T11 construct: purchased Reaction Biology Corp
Method: as §1

EGFR = molecular target: T12, EGFR (Homo sapiens, UniProt P00533); assay: Kinase panel profiling; assay type: biochemical; details: 10 μM ATP
T12 construct: purchased Reaction Biology Corp
Method: as §1

EPHA3 = molecular target: T13, EPHA3 (Homo sapiens, UniProt P29320); assay: Kinase panel profiling; assay type: biochemical; details: 10 μM ATP
T13 construct: purchased Reaction Biology Corp
Method: as §1

ERN2/IRE2 = molecular target: T14, ERN2/IRE2 (Homo sapiens, UniProt Q76MJ5); assay: Kinase panel profiling; assay type: biochemical; details: 10 μM ATP
T14 construct: purchased Reaction Biology Corp
Method: as §1

FGFR3 = molecular target: T15, FGFR3 (Homo sapiens, UniProt P22607); assay: Kinase panel profiling; assay type: biochemical; details: 10 μM ATP
T15 construct: purchased Reaction Biology Corp
Method: as §1

FYN = molecular target: T16, FYN (Homo sapiens, UniProt P06241); assay: Kinase panel profiling; assay type: biochemical; details: 10 μM ATP
T16 construct: purchased Reaction Biology Corp
Method: as §1

HCK = molecular target: T17, HCK (Homo sapiens, UniProt P08631); assay: Kinase panel profiling; assay type: biochemical; details: 10 μM ATP
T17 construct: purchased Reaction Biology Corp
Method: as §1

JNK3 = molecular target: T18, JNK3 (Homo sapiens, UniProt P53779); assay: Kinase panel profiling; assay type: biochemical; details: 10 μM ATP
T18 construct: purchased Reaction Biology Corp
Method: as §1

MAPKAPK5/PRAK = molecular target: T19, MAPKAPK5/PRAK (Homo sapiens, UniProt Q8IW41); assay: Kinase panel profiling; assay type: biochemical; details: 10 μM ATP
T19 construct: purchased Reaction Biology Corp
Method: as §1

MARK3 = molecular target: T20, MARK3 (Homo sapiens, UniProt P27448); assay: Kinase panel profiling; assay type: biochemical; details: 10 μM ATP
T20 construct: purchased Reaction Biology Corp
Method: as §1

MEKK1 = molecular target: T21, MEKK1 (Homo sapiens, UniProt Q13233); assay: Kinase panel profiling; assay type: biochemical; details: 10 μM ATP
T21 construct: purchased Reaction Biology Corp
Method: as §1

NEK1 = molecular target: T22, NEK1 (Homo sapiens, UniProt Q96PY6); assay: Kinase panel profiling; assay type: biochemical; details: 10 μM ATP
T22 construct: purchased Reaction Biology Corp
Method: as §1

NEK7 = molecular target: T23, NEK7 (Homo sapiens, UniProt Q8TDX7); assay: Kinase panel profiling; assay type: biochemical; details: 10 μM ATP
T23 construct: purchased Reaction Biology Corp
Method: as §1

PYK2 = molecular target: T24, PYK2 (Homo sapiens, UniProt Q14289); assay: Kinase panel profiling; assay type: biochemical; details: 10 μM ATP
T24 construct: purchased Reaction Biology Corp
Method: as §1

RET = molecular target: T25, RET (Homo sapiens, UniProt P07949); assay: Kinase panel profiling; assay type: biochemical; details: 10 μM ATP
T25 construct: purchased Reaction Biology Corp
Method: as §1

RON/MST1R = molecular target: T26, RON/MST1R (Homo sapiens, UniProt Q04912); assay: Kinase panel profiling; assay type: biochemical; details: 10 μM ATP
T26 construct: purchased Reaction Biology Corp
Method: as §1

SRPK1 = molecular target: T27, SRPK1 (Homo sapiens, UniProt Q96SB4); assay: Kinase panel profiling; assay type: biochemical; details: 10 μM ATP
T27 construct: purchased Reaction Biology Corp
Method: as §1

TESK2 = molecular target: T28, TESK2 (Homo sapiens, UniProt Q96S53); assay: Kinase panel profiling; assay type: biochemical; details: 10 μM ATP
T28 construct: purchased Reaction Biology Corp
Method: as §1

TNIK = molecular target: T29, TNIK (Homo sapiens, UniProt Q9UKE5); assay: Kinase panel profiling; assay type: biochemical; details: 10 μM ATP
T29 construct: purchased Reaction Biology Corp
Method: as §1

TRKB = molecular target: T30, TRKB (Homo sapiens, UniProt Q16620); assay: Kinase panel profiling; assay type: biochemical; details: 10 μM ATP
T30 construct: purchased Reaction Biology Corp
Method: as §1

TSSK2 = molecular target: T31, TSSK2 (Homo sapiens, UniProt Q96PF2); assay: Kinase panel profiling; assay type: biochemical; details: 10 μM ATP
T31 construct: purchased Reaction Biology Corp
Method: as §1

ULK3 = molecular target: T32, ULK3 (Homo sapiens, UniProt Q6PHR2); assay: Kinase panel profiling; assay type: biochemical; details: 10 μM ATP
T32 construct: purchased Reaction Biology Corp
Method: as §1

Cc1ccc(NC(=O)c2ccc(CN3CCN(C)CC3)c(C(F)(F)F)c2)cc1-c1cnc2sc(N)nc2c1 [6r]
IC50 (c-KIT V560G/D816V; ADP-Glo kinase assay, 10 μM ATP): 4770 ± 380 nM
fold higher enzymatic inhibitory activity against c-KIT V560G/D816V compared with imatinib (c-KIT V560G/D816V; versus imatinib): 4.9- to 8.0 fold and 8.0 fold
GI50 (GIST-T1 cells): 10 nM
inhibition at 1 µM (AXL): 15.8%
inhibition at 1 µM (CAMK1d): 14.3%
inhibition at 1 µM (CDK16/cyclin Y (PCTAIRE)): 0.8%
inhibition at 1 µM (CDK2/CYCLIN A): 0%
inhibition at 1 µM (CK1g2): 38.9%
inhibition at 1 µM (CK2a): 21.7%
inhibition at 1 µM (CLK2): 38.7%
inhibition at 1 µM (COT1/MAP3K8): 9.2%
inhibition at 1 µM (DAPK2): 0.3%
inhibition at 1 µM (DYRK4): 0%
inhibition at 1 µM (EGFR): 21.4%
inhibition at 1 µM (EPHA3): 41.1%
inhibition at 1 µM (ERN2/IRE2): 12.9%
inhibition at 1 µM (FGFR3): 0%
inhibition at 1 µM (FYN): 89%
inhibition at 1 µM (HCK): 83.1%
inhibition at 1 µM (JNK3): 5.1%
inhibition at 1 µM (MAPKAPK5/PRAK): 0%
inhibition at 1 µM (MARK3): 0%
inhibition at 1 µM (MEKK1): 0%
inhibition at 1 µM (NEK1): 2.6%
inhibition at 1 µM (NEK7): 5.4%
inhibition at 1 µM (PYK2): 48.1%
inhibition at 1 µM (RET): 99.4%
inhibition at 1 µM (RON/MST1R): 4.5%
inhibition at 1 µM (SRPK1): 46.3%
inhibition at 1 µM (TESK2): 15.1%
inhibition at 1 µM (TNIK): 22.4%
inhibition at 1 µM (TRKB): 10.6%
inhibition at 1 µM (TSSK2): 0%
inhibition at 1 µM (ULK3): 7.2%
